From PubChem BioAssay AID282 (DTP/NCI, 2004)
Where “and” joins values, the source holds several entries; their conditions need not be identical. Identical values can stand only once. Toxic doses and inconclusive results are not listed.

System: BDF1 mice, L1210 terephthalanilide-resistant leukemia ip, survival T/C
Test: NCI In Vivo Anticancer Drug Screen. Data for tumor model L1210 Leukemia resistant to A Terephthalanilide; NSC 38280 (intraperitoneal) in B6D2F1 (BDF1) mice
Conditions: endpoint: mean survival time, higher = longer survival
Protocol: The antitumor activity of compounds was measured in mice bearing transplantable tumors. Survival or tumor size were measured and the results are expressed as the measurement made in the treated group (T) divided by the measurement made in the vehicle treated control group (C). The tumor model used in this assay is L1210 Leukemia resistant to A Terephthalanilide; NSC 38280 (intraperitoneal) in B6D2F1 (BDF1) mice

[1] = dose: 10.0 mg/kg/injection, schedule: Q01DX010 (ip), vehicle: saline
[2] = dose: 20.0 mg/kg/injection, schedule: Q01DX010 (ip), vehicle: saline
[3] = dose: 40.0 mg/kg/injection, schedule: Q01DX010 (ip), vehicle: saline
[4] = dose: 80.0 mg/kg/injection, schedule: Q01DX010 (ip), vehicle: saline

`C[C@@H]1C[C@@H]([C@H](O)CC2CC(=O)NC(=O)C2)C(=O)[C@@H](C)C1` was tested, and the T/C (dose: 1.25 mg/kg/injection, schedule: Q01DX Z (ip), vehicle: saline) was 101 % of control, the T/C (dose: 2.5 mg/kg/injection, schedule: Q01DX Z (ip), vehicle: saline) was 107 % of control and the T/C (dose: 5.0 mg/kg/injection, schedule: Q01DX010 (ip), vehicle: saline) was 100 % of control and 105 % of control. The T/C (dose: 5.0 mg/kg/injection, schedule: Q01DX Z (ip), vehicle: saline) was 106 % of control, the T/C (dose: 7.5 mg/kg/injection, schedule: Q01DX Z (ip), vehicle: saline) was 107 % of control and the T/C [1] was 123 % of control and 113 % of control. For the same compound, the T/C [2] was 113 % of control and 117 % of control and the T/C [3] was 115 % of control.

For `Nc1nc(=S)c2ncn(C3OC(CO)C(O)C3O)c2[nH]1` (centres undefined), the T/C (dose: 0.13 mg/kg/injection, schedule: Q01DX Z (ip), vehicle: carboxymethylcellulose (CMC)) was 117 % of control, the T/C (dose: 0.3 mg/kg/injection, schedule: Q01DX Z (ip), vehicle: carboxymethylcellulose (CMC)) was 120 % of control and the T/C (dose: 1.25 mg/kg/injection, schedule: Q01DX Z (ip), vehicle: carboxymethylcellulose (CMC)) was 182 % of control. For the same compound, the T/C (dose: 2.0 mg/kg/injection, schedule: Q01DX010 (ip), vehicle: saline) was 157 % of control and 179 % of control, the T/C (dose: 2.5 mg/kg/injection, schedule: Q01DX Z (ip), vehicle: carboxymethylcellulose (CMC)) was 151 % of control and the T/C (dose: 4.0 mg/kg/injection, schedule: Q01DX010 (ip), vehicle: saline) was 86 % of control and 110 % of control. The T/C (dose: 5.0 mg/kg/injection, schedule: Q01DX Z (ip), vehicle: carboxymethylcellulose (CMC)) was 155 % of control, the T/C (dose: 8.0 mg/kg/injection, schedule: Q01DX010 (ip), vehicle: saline) was 98 % of control and the T/C (dose: 15.0 mg/kg/injection, schedule: Q01DX Z (ip), vehicle: carboxymethylcellulose (CMC)) was 111 % of control. For the same compound, the T/C (dose: 20.0 mg/kg/injection, schedule: Q01DX Z (ip), vehicle: carboxymethylcellulose (CMC)) was 102 % of control.

For `CSCS(=O)C[C@H](CO)NC(=O)/C=C/c1c(C)[nH]c(=O)[nH]c1=O` (some centres undefined), the T/C (dose: 62.5 micrograms/kg/injection, schedule: Q01DX010 (ip), vehicle: saline) was 100 % of control, the T/C (dose: 125.0 micrograms/kg/injection, schedule: Q01DX010 (ip), vehicle: saline) was 100 % of control and the T/C (dose: 250.0 micrograms/kg/injection, schedule: Q01DX010 (ip), vehicle: saline) was 102 % of control. The T/C (dose: 500.0 micrograms/kg/injection, schedule: Q01DX010 (ip), vehicle: saline) was 102 % of control.

For `NC12CC3CC(CC(C3)C1)C2`, the T/C (dose: 25.0 mg/kg/injection, schedule: Q01DX010 (ip), vehicle: saline) was 108 % of control, the T/C (dose: 50.0 mg/kg/injection, schedule: Q01DX010 (ip), vehicle: saline) was 106 % of control and the T/C (dose: 100.0 mg/kg/injection, schedule: Q01DX010 (ip), vehicle: saline) was 101 % of control.

`CCn1cnc2c(=S)nc[nH]c21` was tested, and the T/C (dose: 15.6 mg/kg/injection, schedule: Q01DX010 (ip), vehicle: saline) was 104 % of control, the T/C (dose: 25.0 mg/kg/injection, schedule: Q01DX Z (ip), vehicle: carboxymethylcellulose (CMC)) was 113 % of control and the T/C (dose: 31.3 mg/kg/injection, schedule: Q01DX010 (ip), vehicle: saline) was 106 % of control and 109 % of control. The T/C (dose: 62.5 mg/kg/injection, schedule: Q01DX010 (ip), vehicle: saline) was 95 % of control and 118 % of control, the T/C (dose: 100.0 mg/kg/injection, schedule: Q01DX Z (ip), vehicle: carboxymethylcellulose (CMC)) was 155 % of control and the T/C (dose: 125.0 mg/kg/injection, schedule: Q01DX010 (ip), vehicle: saline) was 123 % of control and 106 % of control.

For `C[N+](C)(C)c1ncnc2nc[nH]c12`, the T/C (dose: 15.0 mg/kg/injection, schedule: Q01DX010 (ip), vehicle: saline) was 92 % of control, the T/C (dose: 30.0 mg/kg/injection, schedule: Q01DX010 (ip), vehicle: saline) was 110 % of control and the T/C (dose: 37.0 mg/kg/injection, schedule: Q01DX Z (ip), vehicle: saline) was 102 % of control.

With `Cn1c(N)nc2nc[nH]c2c1=S` the T/C [1] was 103 % of control, the T/C (dose: 16.0 mg/kg/injection, schedule: Q01DX Z (ip), vehicle: carboxymethylcellulose (CMC)) was 111 % of control and the T/C [2] was 93 % of control. For the same compound, the T/C (dose: 31.0 mg/kg/injection, schedule: Q01DX Z (ip), vehicle: carboxymethylcellulose (CMC)) was 120 % of control, the T/C (dose: 37.5 mg/kg/injection, schedule: Q01DX Z (ip), vehicle: carboxymethylcellulose (CMC)) was 150 % of control and the T/C [3] was 99 % of control. For the same compound, the T/C (dose: 50.0 mg/kg/injection, schedule: Q01DX Z (ip), vehicle: carboxymethylcellulose (CMC)) was 154 % of control, the T/C (dose: 75.0 mg/kg/injection, schedule: Q01DX Z (ip), vehicle: carboxymethylcellulose (CMC)) was 119 % of control and the T/C [4] was 100 % of control. For the same compound, the T/C (dose: 150.0 mg/kg/injection, schedule: Q01DX Z (ip), vehicle: carboxymethylcellulose (CMC)) was 150 % of control.

For `O=c1[nH]c(=O)n(C2CC(O)C(CO)O2)cc1F` (centres undefined), the T/C [1] was 103 % of control, the T/C (dose: 12.5 mg/kg/injection, schedule: Q01DX Z (ip), vehicle: saline) was 118 % of control and the T/C [2] was 110 % of control and 119 % of control. For the same compound, the T/C (dose: 25.0 mg/kg/injection, schedule: Q01DX Z (ip), vehicle: saline) was 116 % of control, the T/C (dose: 37.5 mg/kg/injection, schedule: Q01DX Z (ip), vehicle: saline) was 122 % of control and the T/C [3] was 95 % of control. For the same compound, the T/C (dose: 50.0 mg/kg/injection, schedule: Q01DX Z (ip), vehicle: saline) was 178 % of control, the T/C [4] was 151 % of control and the T/C (dose: 100.0 mg/kg/injection, schedule: Q01DX Z (ip), vehicle: saline) was 183 % of control. For the same compound, the T/C (dose: 500.0 mg/kg/injection, schedule: Q01DX Z (ip), vehicle: saline) was 119 % of control.
